Data as given in patent US20100168120A1, “SALTS OF PYRIDAZINE COMPOUNDS” (NEUROMEDIX INC., priority 2006, published 2010).
Entries after “also recorded” stand apart in the source; their conditions may differ. Where two headings read alike, the source gives them in different places.

Assays:
[1] = test system: IL-1β production; experiment: Inhibition of IL-1β production (glial activation); format: cell-based; conditions: in words
[2] = test system: NO production; experiment: Inhibition of NO production (glial activation); format: cell-based; conditions: read-out: NO, concentration required for 50% inhibition
[3] = In vitro metabolic stability in human liver microsomes; format: in vitro ADME; conditions: 5 μM or 25 μM, 10 or 30 min
Method: (§1) In particular FIG. 3 are bar graphs showing that MW01-9-034WH has improved metabolic stability in rat (A) and human (B) liver microsome incubations compared to minaprine. […] Extracts were prepared, and the amount of compound remaining was analyzed by HPLC using internal standards for recovery.

[4] = In vitro metabolic stability in rat liver microsomes; format: in vitro ADME; conditions: 5 μM or 25 μM, 10 or 30 min
Method: as §1

[5] = test system: human amyloid-beta (Aβ)-induced injury; experiment: AD-relevant mouse model of human Aβ-induced injury (Aβ infusion model); format: in vivo; conditions: hippocampus, […] oral once daily for 2 weeks, dihydrochloride salt
Method: The efficacy of Minozac in an AD-relevant mouse model of human amyloid-beta (Aβ)-induced injury (infusion of human Aβ peptide) was determined. Briefly, C57BL/6 mice (n=5-10 mice per group) were subjected to either vehicle (Control) or human oligomeric Aβ1-42 intracerebroventricular (ICV) infusion for four weeks. […] Beginning at day 50 after the start of Aβ ICV infusion, the Y-maze test of spontaneous alternation was used to evaluate hippocampus-dependent spatial learning deficits. At day 60 after the start of Aβ ICV infusion, mice were sacrificed, perfused with buffer containing a protease inhibitor cocktail, and the brain was harvested. The brain was longitudinally bisected and the right half of the brain used for histology. The hippocampus was dissected from the left half of the brain. The levels of IL-1β, TNFα, S100B and synaptophysin were measured in hippocampal extracts by ELISA, and postsynaptic density-95 ([…]) levels were determined by Western blotting. Immunohistochemical detection of GFAP-positive astrocytes and F4/80 positive microglia was performed on 10 μm sections.

[6] = test system: LPS inflammation model; experiment: Systemic proinflammatory cytokine expression after LPS challenge; format: in vivo, mouse; conditions: 15 mg/kg orally for 14 days, LPS challenge day 15, serum at 6 hours
Method: The effect of Minozac on the systemic expression of proinflammatory cytokines was determined. Briefly, saline (0.9% NaCL) or Minozac (15 mg/kg) was administered orally for 14 days. Mice were challenged with LPS at the 15th day. Mice were sacrificed at 6 hours after LPS challenge and blood harvested for serum. The levels of cytokines TNFα and […] in the serum were measured using the Meso-scale Discovery system according to manufacturer's instructions. The data for TNFα and IL-1β are shown in FIG. 4 as percent of the level observed in the saline treated mice.

[7] = in vivo
Method: Plasma samples obtained from dog pharmacokinetic studies were analyzed using reversed phase HPLC with tandem mass spectrometric detection. Briefly, aliquots of internal standard (200 μl of 200 ng/ml) were added to protein precipitation plates (Sirocco protein precipitation plates, Waters Corporation, Milford, Mass., USA), followed by addition of plasma sample to the plate (50 μl). The plate was shaken for 3 minutes, and then a vacuum (maximum of −10 mm Hg) was applied to the plate for 3 minutes. Extract (75 μl) was transferred into a 2 ml 96-well plate, and to each sample was added 1425 μl of Eluent A (95:5:0.1 MilliQ water:acetonitrile:formic acid). 10 μl was injected onto the reverse phase column (ODS C18; 4×2 mm i.d.; Phenomenex, Torrance, USA). The mobile phase was set to 300 μl/min and eluate by mass spectrometry (APT 5000, Applied Biosystems). Calibration standards were processed along with the samples, and the concentration of Minozac [2-(4-(4-methyl-6-phenylpyridazin-3-yl)piperazin-1-yl)pyrimidine dihydrochloride salt] determined using a regression equation. […] The internal standard was compound code MW01-8-064WH (chemical name: 4-methyl-3-phenyl-6-((4-pyrimidin-2-yl)piperazin-1-yl)pyridazine).
The pharmacokinetics of Minozac was determined at 2.5 mg/kg following oral administration by gavage of an aqueous solution.
Intravenous dosing was also carried out at 2.5 mg/kg, but with drug in a 0.9% saline solution.
The pharmacokinetics were determined following oral dosing with a neutralized propylene glycol formulation (FIG. 6) and with filled gelatin capsules at a single dose of 2.5 mg/kg (FIG. 7).

[8] = physchem; conditions: 37 °C, water, aqueous solubility
[9] = logP by octanol/water partition coefficient
[10] = PK assessment in mice, plasma and brain after single oral dose; conditions: C57BL/6, mouse
[11] = Chemical stability in water, dilute acid or dilute base; format: physicochemical; conditions: dilute acid, or dilute base at 37° C. over one week

Cc1cc(-c2ccccc2)nnc1N1CCN(c2ncccn2)CC1 [Compound 5, 4-methyl-6-phenyl-3-(4-pyrimidin-2-ylpiperazin-1-yl)pyridazine]
selective suppression of IL-1 production compared to NO production [1]: retained selective suppression
IC50 [2]: > 25 µM

Cc1cc(-c2ccccc2)nnc1N1CCN(c2ncccn2)CC1.Cl.Cl [Compound 16, 2-(4-(4-methyl-6-phenylpyridazin-3-yl)piperazin-1-yl)pyrimidine dihydrochloride salt]
metabolic stability, compound remaining [3]: stable even after 30 min incubation
metabolic stability, compound remaining [4]: stable even after 30 min incubation
number of activated F4/80-positive microglia [5]: reduced
number of activated F4/80-positive microglia ([5]; listed as MW01-9-034WH): decreases
number of activated F4/80-positive microglia ([5]; listed as Minozac): reduced
systemic (serum) expression of IL-1β [6]: no effect
systemic (serum) expression of TNFα [6]: no effect
Vd ([7]; Beagle, dog, iv, […], Vss): 44.5 ± 10.3 L
Vd ([7]; Beagle, dog, iv, […], Vz): 95.1 ± 43.6 L
half-life ([7]; in vivo, iv, […]): 269 min
bioavailability ([7]; in vivo, po, […]): 23%
half-life ([7]; in vivo, po, […]): 126 min
bioavailability ([7]; male, Beagle, dog): 16%
bioavailability ([7]; male, Beagle, dog, po): 21%
half-life ([7]; male, Beagle, dog, po, […], t1/2): 88.2 min
solubility [8]: > 322 mg/mL
logP [9]: 2.29
logP ([9]; octanol/water): 2.7
Tmax ([10]; brain): ~15 min
half-life ([10]; brain): ~45 min
half-life ([10]; plasma): ~15 min
loss of material (chemical stability) [11]: less than 10%

Cc1cc(-c2ccccc2)nnc1N1CCN(C)CC1 [Compound 11]
activity (suppression of proinflammatory cytokine production in glia) [1]: loss of activity; also recorded: diminution of activity

Cc1cc(-c2ccccc2)nnc1NCCN1CCOCC1 [minaprine, reference compound]
metabolic stability, compound remaining [3]: majority of minaprine is gone by 10 min
metabolic stability, compound remaining [4]: majority of minaprine is gone by 10 min

c1ccc(-c2cc(-c3ccccc3)c(N3CCN(c4ncccn4)CC3)nn2)cc1 [Compound 1, 4,6-diphenyl-3-(4-pyrimidin-2-ylpiperazin-1-yl)pyridazine]
IC50 [2]: > 25 µM
logP ([9]; octanol/water): 2.3

Cc1cc(-c2ccccc2)nnc1N1CCN(c2ncccn2)CC1.Cl.Cl [Compound 6]
selective suppression of IL-1 production compared to NO production [1]: lost selectivity
